Experimental data reported in patent US7935722B2 (Eli Lilly and Company, priority 2005, dated 2011).

Tests used:
[1] = target: T1, human androgen receptor (AR) (Homo sapiens, UniProt P10275); assay: C2C12 AR/ARE reporter assay; assay type: cell-based; conditions: for Emax: C2C12, read-out: C2C12 % Efficacy
T1 construct: expressed in transfected cells; host or cells: mouse myoblast C2C12 cells, transiently co-transfected
T1 sequence (P10275 1-920): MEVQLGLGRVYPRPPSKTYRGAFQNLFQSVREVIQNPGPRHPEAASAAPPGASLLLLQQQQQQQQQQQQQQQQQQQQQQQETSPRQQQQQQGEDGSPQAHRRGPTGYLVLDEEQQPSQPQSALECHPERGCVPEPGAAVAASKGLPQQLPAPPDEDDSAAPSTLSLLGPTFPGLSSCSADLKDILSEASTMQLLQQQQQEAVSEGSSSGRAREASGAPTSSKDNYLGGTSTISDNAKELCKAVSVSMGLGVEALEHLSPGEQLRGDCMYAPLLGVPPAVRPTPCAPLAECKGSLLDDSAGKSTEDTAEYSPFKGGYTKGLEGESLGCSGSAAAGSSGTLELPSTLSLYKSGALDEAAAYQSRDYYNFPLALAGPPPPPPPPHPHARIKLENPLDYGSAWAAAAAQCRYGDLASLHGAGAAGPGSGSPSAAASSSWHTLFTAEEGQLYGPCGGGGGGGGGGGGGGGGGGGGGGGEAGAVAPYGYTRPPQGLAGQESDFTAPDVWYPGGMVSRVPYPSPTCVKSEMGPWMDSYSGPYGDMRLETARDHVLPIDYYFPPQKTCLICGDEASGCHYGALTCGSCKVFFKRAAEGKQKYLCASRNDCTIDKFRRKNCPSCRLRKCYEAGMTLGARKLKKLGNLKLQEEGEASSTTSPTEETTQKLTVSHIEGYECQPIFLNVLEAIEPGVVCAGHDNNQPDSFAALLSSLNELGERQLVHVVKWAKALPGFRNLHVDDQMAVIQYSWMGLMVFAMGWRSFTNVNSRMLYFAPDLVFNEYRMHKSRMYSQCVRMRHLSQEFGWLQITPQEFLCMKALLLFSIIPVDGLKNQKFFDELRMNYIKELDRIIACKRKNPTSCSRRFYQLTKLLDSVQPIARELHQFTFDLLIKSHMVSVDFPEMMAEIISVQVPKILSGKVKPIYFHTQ
Method in brief: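 Mouse C2C12 myoblasts co-transfected with AR/ARE reporter were plated in charcoal-stripped serum and treated for 48 h with compound from about 0.01 nM to 10 μM. Luciferase activity gave EC50 by 4-parameter logistic fit. Efficacy is expressed as % of maximal stimulation by 10 nM methyltrienolone.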

[2] = target: T2, human AR (androgen receptor) (Homo sapiens, UniProt P10275); assay: Steroid hormone nuclear receptor binding assay, AR binding
T2 construct: expressed in transfected cells; host or cells: 293 cells (293-AR lysate)
T2 sequence (P10275 1-920): T1 sequence (P10275 1-920)
Method in brief: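 Competition binding with lysates of 293 cells overexpressing human AR, [3H]-methyltrienolone tracer, compounds from about 0.01 nM to 10 μM, overnight at 4 °C; non-specific binding set with 500 nM methyltrienolone. Bound tracer counted by scintillation after charcoal-dextran separation; IC50 converted to Ki by Cheng-Prusoff using Kd from saturation binding.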

## CC(C)C(=O)NC1CCc2c(c3cc(F)ccc3n2Cc2ccc(C#N)cc2)C1 (stereo not drawn) [Example 14]
[1]
  EC50: 927 nM
  Emax: 36.4%
[2]
  Ki: 81.4 nM
other
  melting point: 181 to 184 °C

## CC(C)C(=O)NC1CCc2c(c3cc(C#N)ccc3n2Cc2ccccc2OC(F)(F)F)C1 (stereo not drawn) [Example 100, N-[6-Cyano-9-(2-trifluoromethoxy-benzyl)-2,3,4,9-tetrahydro-1H-carbazol-3-yl]-isobutyramide]
[1]
  EC50: 126 nM
  Emax: 87.6%
[2]
  Ki: 8 nM
other
  melting point: 224 to 225 °C

## CC(C)C(=O)NC1CCc2c(c3cc(F)ccc3n2Cc2cccc(F)c2)C1 (stereo not drawn) [Example 8]
[1]
  EC50: 57.8 nM
  Emax: 108%
[2]
  Ki: 2.5 nM
other
  melting point: 181 to 184 °C

## COc1cccc(Cn2c3c(c4cc(Br)ccc42)CC(NC(=O)C(C)C)CC3)c1 (stereo not drawn) [Example 37]
[1]
  EC50: 109 nM
  Emax: 95.5%
[2]
  Ki: 9.1 nM
other
  melting point: 176 to 180 °C

## CC(C)C(=O)NC1CCc2c(c3cc(F)ccc3n2Cc2ccc(F)cc2)C1 (stereo not drawn) [Example 12]
[1]
  EC50: 186 nM
  Emax: 50%
[2]
  Ki: 25 nM
other
  melting point: 166 to 168 °C

## CC(C)C(=O)NC1CCc2c(c3cc(F)ccc3n2Cc2cccc(Cl)c2)C1 (stereo not drawn) [Example 9]
[1]
  EC50: 113 nM
  Emax: 62.3%
[2]
  Ki: 7.2 nM
other
  melting point: 177 to 179 °C

## CC(C)C(=O)NC1CCc2c(c3cc(Br)ccc3n2Cc2ccccc2C#N)C1 (stereo not drawn) [Example 33]
[1]
  EC50: 433 nM
  Emax: 87.3%
[2]
  Ki: 13 nM
other
  melting point: 240 to 241.5 °C

## CO/N=C/c1ccc2c(c1)c1c(n2Cc2ccccn2)CCC(NC(=O)C2CC2)C1 (stereo not drawn) [Example 207, Cyclopropanecarboxylic acid[6-(1-methoxyimino-methyl)-9-pyridin-2-ylmethyl-2,3,4,9-tetrahydro-1H-carbazol-3-yl]-amide]
[1]
  EC50: 11.6 nM
  Emax: 93.3%
[2]
  Ki: 41.6 nM
other
  melting point: 88 to 92 °C

## CC(C)C(=O)NC1CCc2c(c3cc(C(F)(F)F)ccc3n2Cc2cccc(F)c2)C1 (stereo not drawn) [Example 55]
[1]
  EC50: 2.5 nM
  Emax: 82.9%
[2]
  Ki: 11.2 nM
other
  melting point: 131 to 138 °C

## CC(C)C(=O)NC1CCc2c(c3cc(F)ccc3n2Cc2ccc(Cl)cc2)C1 (stereo not drawn) [Example 13]
[1]
  EC50: 1030 nM
  Emax: 55.5%
[2]
  Ki: 33.5 nM
other
  melting point: 188 to 190 °C

## Cc1ccc2c(c1)c1c(n2Cc2ccccc2Cl)CCC(NC(=O)C(C)C)C1 (stereo not drawn) [Example 44]
[1]
  EC50: 305 nM
  Emax: 71.1%
[2]
  Ki: 94.2 nM
other
  melting point: 194 °C

## CC(C)C(=O)NC1CCc2c(c3cc(Br)ccc3n2Cc2ccc(F)cc2)C1 (stereo not drawn) [Example 39]
[1]
  EC50: 28.9 nM
  Emax: 76.1%
[2]
  Ki: 5.3 nM
other
  melting point: 165 to 170 °C

## CC(C)C(=O)NC1CCc2c(c3cc(-c4nccs4)ccc3n2Cc2cccc(F)c2)C1 (stereo not drawn) [Example 130, N-[9-(3-Fluorobenzyl)-6-thiazol-2-yl-2,3,4,9-tetrahydro-1H-carbazol-3-yl]isobutyramide]
[1]
  EC50: 5 nM
  Emax: 85.6%
[2]
  Ki: 13.6 nM
other
  melting point: 221 to 225 °C

## N#Cc1ccc2c(c1)c1c(n2Cc2cccc(F)n2)CC[C@@H](NC(=O)C2CC2)C1 [Example 195, Cyclopropanecarboxylic acid[6-cyano-9-(6-fluoro-pyridin-2-ylmethyl)-2,3,4,9-tetrahydro-1H-carbazol-3-yl]-amide]
[1]
  EC50: 2.7 nM
  Emax: 96.5%
[2]
  Ki: 4.3 nM
other
  melting point: 243 to 245 °C

## Cc1ccc2c(c1)c1c(n2Cc2ccccc2F)CCC(NC(=O)C(C)C)C1 (stereo not drawn) [Example 43]
[1]
  EC50: 462 nM
  Emax: 69.6%
[2]
  Ki: 104 nM
other
  melting point: 174 to 176 °C

## CC(C)C(=O)N[C@H]1CCc2c(c3cc(C#N)ccc3n2Cc2cccc(F)c2)C1 [Example 124, (S)-N-(6-Cyano-9-(3-fluorobenzyl)-2,3,4,9-tetrahydro-1H-carbazol-3-yl)isobutyramide]
[1]
  EC50: 1110 nM
  Emax: 49.9%
[2]
  Ki: 195 nM
other
  melting point: 223 to 225 °C

## CC(C)C(=O)NC1CCc2c(c3cc(Cl)ccc3n2Cc2ccc(C#N)cc2)C1 (stereo not drawn) [Example 28]
[1]
  EC50: 301 nM
  Emax: 64.3%
[2]
  Ki: 12.8 nM
other
  melting point: 158 to 162 °C

## CC(C)C(=O)NC1CCc2c(c3cc(F)ccc3n2Cc2ccccc2C#N)C1 (stereo not drawn) [Example 7]
[1]
  Emax: 35.8%
[2]
  Ki: 99.6 nM
other
  melting point: 164 to 167 °C

## CC(C)C(=O)NC1CCc2c(c3cc(Cl)ccc3n2Cc2ccccc2Cl)C1 (stereo not drawn) [Example 18]
[1]
  EC50: 153 nM
  Emax: 82.1%
[2]
  Ki: 10.5 nM
other
  melting point: 197 to 199 °C
